Laboratory results reported in US20020082273A1, “Agents for use in the treatment of alzheimer's disease” (priority 1998, published 2002).

Tests used:
[1] = Cu^2+-induced SDS-resistant polymerization of Aβ peptides, western blot image analysis; type: biochemical, human; conditions: for conversion of monomer to dimer / conversion of monomer to trimer: Cu^2+ 30 μM
Procedure: Following incubation (37° C.), aliquots of each reaction (2 ng peptide) were collected at 0 d, 1 d, 3 d and 5 d and western blotted using anti-Aβ monoclonal antibody 8E10 (FIG. 9). Migration of the molecular size markers are indicated (kDa). […] It should be noted that other means of visualizing and/or determining the presence or absence of polymerization other than western blot analysis may be used. Such other means include but are not limited to density sedimentation by centrifugation of the samples.
The generation of SDS-resistant Aβ polymers by metal ions was tested by incubating Cu^2+ (30 μM) or Zn^2+ (30 μM) at pH 6.6, 7.4 and 9.0 with Aβ1-40.
(0-30 μM) at pH 7.4 and 6.6 and the samples analyzed by Western blot and the signal quantitated using the Fluoro-S Image Analysis System (Bio-Rad, Hercules, Calif.) as previously described.

[2] = Metal reduction assay, Fe^3+ to Fe^2+; type: biochemical; conditions: 10 μM Fe^3+, PBS pH 7.4, 1 hr 37° C.
Procedure: (§1) The metal reduction assay was performed using a 96-well microtiter plate (Costar) based upon a modification of established protocols (Landers, J. W., et al., Amer. Clin. Path. 29:590 (1958); Landers, J. W., et al., Clinica Chimica Acta 3:329 (1958)). Polypeptides (10 μM) or Vitamin C (100 μM), metal ions (10 μM, Fe(NO3)3 or Cu(NO3)2), and reduced metal ion indicators, bathophenanthrolinedisulfonic acid (BP, for Fe^2+, Sigma, 200 μM) or bathocuproinedisulfonic acid (BC, for Cu^+, Sigma, 200 μM), were coincubated in phosphate buffered saline (PBS), pH 7.4, for 1 hr at 37° C. The metal ion solutions were prepared by direct dilution in the buffer from their aqueous stocks purchased from National Institute of Standards and Technology (NIST). Absorbances were then measured at 536 mn (Fe^2+-BP complex) and 483 nm (Cu^+-BC complex), respectively, using a 96-well plate reader (SPECTRAmax 250, Molecular Devices, CA). In control samples, both metal ion and indicator were present to determine the background buffer signal. As a further control, both metal ion and peptide were present in the absence of indicator to estimate the contribution of light scattering due to turbidity to the absorbance reading at these wavelengths. The net absorbances (ΔA) at 536 nm or 483 nm were obtained by deducting the absorbances from these controls from the absorbances generated by the peptide and metal in the presence of the respective indicator.
The concentrations of reduced metal ions (Fe^2+ or Cu^+) were quantified based on the formula: Fe^2+ or Cu^+ (˜M)=A*10^6/(L*M), where L is the measured equivalent vertical pathlength for a well of 300 μL volume as described in the instrument's specifications manual (0.856 cm for Fe^2+; 1.049 cm for Cu^+); M is the known molecular absorbance (M^−1 cm^−1) which is 7124 (for Fe^2+-BP complex) or 2762 (for Cu^+-BC complex).

[3] = Metal reduction assay, Cu^2+ to Cu^+; type: biochemical; conditions: 10 μM Cu^2+, PBS pH 7.4, 1 hr 37° C.
Procedure: Aβ (10 μM in PBS, pH 7.4 or 6.8, as shown) was incubated for 30 minutes (37° C.) in the presence of Cu^2+10 μM ±Zn^2+ 10 μM). […] levels (n=3, ±SD) were assayed against a standard curve.
as §1, with “Polypeptides” for “The metal reduction assay was performed using a 96-well microtiter plate (Costar) based upon a modification of established protocols (Landers, J. W., et al., Amer. Clin. Path. 29:590 (1958); Landers, J. W., et al., Clinica Chimica Acta 3:329 (1958)). Polypeptides”, “Absorbances were then measured at 536 mn (Fe^2+-BP complex) and 483 nm (Cu^+-BC complex), respectively, using a 96-well plate reader (SPECTRAmax 250, Molecular Devices, CA).” left out

Aβ1-40: synthetic human Aβ peptide, residues 1-40
conversion of monomer to dimer ([1]; pH 6.6, 5 d): 29% | conversion of monomer to trimer ([1]; pH 6.6, 5 d): 2% | conversion of monomer to dimer ([1]; pH 7.4, 5 d): 42% | conversion of monomer to trimer ([1]; pH 7.4, 5 d): 9% | peptide converted to SDS-resistant dimer ([1]; no added metal, pH 6.6, 7.4 or 9.0, 5 d): Less than 4% | SDS-resistant polymers: Dimer ([1]; pH 6.6, [Cu^2+] 0): 2.1 | SDS-resistant polymers: Monomer ([1]; pH 6.6, [Cu^2+] 0): 97.9 | SDS-resistant polymers: Pentamer ([1]; pH 6.6, [Cu^2+] 0): 0 | SDS-resistant polymers: Tetramer ([1]; pH 6.6, [Cu^2+] 0): 0 | SDS-resistant polymers: Trimer ([1]; pH 6.6, [Cu^2+] 0): <0.1 | SDS-resistant polymers: Dimer ([1]; pH 6.6, [Cu^2+] 0.5): 2.2 | SDS-resistant polymers: Monomer ([1]; pH 6.6, [Cu^2+] 0.5): 97.6 | SDS-resistant polymers: Pentamer ([1]; pH 6.6, [Cu^2+] 0.5): 0 | SDS-resistant polymers: Tetramer ([1]; pH 6.6, [Cu^2+] 0.5): 0 | SDS-resistant polymers: Trimer ([1]; pH 6.6, [Cu^2+] 0.5): 0.2 | SDS-resistant polymers: Dimer ([1]; pH 6.6, [Cu^2+] 1): 7.3 | SDS-resistant polymers: Monomer ([1]; pH 6.6, [Cu^2+] 1): 92.6 | SDS-resistant polymers: Pentamer ([1]; pH 6.6, [Cu^2+] 1): 0 | SDS-resistant polymers: Tetramer ([1]; pH 6.6, [Cu^2+] 1): 0 | SDS-resistant polymers: Trimer ([1]; pH 6.6, [Cu^2+] 1): 0.1 | SDS-resistant polymers: Dimer ([1]; pH 6.6, [Cu^2+] 5): 9.8 | SDS-resistant polymers: Monomer ([1]; pH 6.6, [Cu^2+] 5): 90.1 | SDS-resistant polymers: Pentamer ([1]; pH 6.6, [Cu^2+] 5): 0 | SDS-resistant polymers: Tetramer ([1]; pH 6.6, [Cu^2+] 5): 0 | SDS-resistant polymers: Trimer ([1]; pH 6.6, [Cu^2+] 5): 0.1 | SDS-resistant polymers: Dimer ([1]; pH 6.6, [Cu^2+] 10): 16.1 | SDS-resistant polymers: Monomer ([1]; pH 6.6, [Cu^2+] 10): 79.4 | SDS-resistant polymers: Pentamer ([1]; pH 6.6, [Cu^2+] 10): 0 | SDS-resistant polymers: Tetramer ([1]; pH 6.6, [Cu^2+] 10): 0 | SDS-resistant polymers: Trimer ([1]; pH 6.6, [Cu^2+] 10): 4.5 | SDS-resistant polymers: Dimer ([1]; pH 6.6, [Cu^2+] 30): 13.2 | SDS-resistant polymers: Monomer ([1]; pH 6.6, [Cu^2+] 30): 74.5 | SDS-resistant polymers: Pentamer ([1]; pH 6.6, [Cu^2+] 30): 0 | SDS-resistant polymers: Tetramer ([1]; pH 6.6, [Cu^2+] 30): 0 | SDS-resistant polymers: Trimer ([1]; pH 6.6, [Cu^2+] 30): 12.2 | increase in dimerization ([1]; pH 6.6, [Cu^2+] increased from 0.5 to 1 μM): over 3 fold | SDS-resistant polymers: Dimer ([1]; pH 7.4, [Cu^2+] 0): 3.2 | SDS-resistant polymers: Monomer ([1]; pH 7.4, [Cu^2+] 0): 96.8 | SDS-resistant polymers: Pentamer ([1]; pH 7.4, [Cu^2+] 0): 0 | SDS-resistant polymers: Tetramer ([1]; pH 7.4, [Cu^2+] 0): 0 | SDS-resistant polymers: Trimer ([1]; pH 7.4, [Cu^2+] 0): <0.1 | SDS-resistant polymers: Dimer ([1]; pH 7.4, [Cu^2+] 0.5): 4.9 | SDS-resistant polymers: Monomer ([1]; pH 7.4, [Cu^2+] 0.5): 94.8 | SDS-resistant polymers: Pentamer ([1]; pH 7.4, [Cu^2+] 0.5): 0 | SDS-resistant polymers: Tetramer ([1]; pH 7.4, [Cu^2+] 0.5): 0 | SDS-resistant polymers: Trimer ([1]; pH 7.4, [Cu^2+] 0.5): 0.3 | SDS-resistant polymers: Dimer ([1]; pH 7.4, [Cu^2+] 1): 5.9 | SDS-resistant polymers: Monomer ([1]; pH 7.4, [Cu^2+] 1): 93.6 | SDS-resistant polymers: Pentamer ([1]; pH 7.4, [Cu^2+] 1): 0 | SDS-resistant polymers: Tetramer ([1]; pH 7.4, [Cu^2+] 1): 0 | SDS-resistant polymers: Trimer ([1]; pH 7.4, [Cu^2+] 1): 0.6 | SDS-resistant polymers: Dimer ([1]; pH 7.4, [Cu^2+] 5): 14.2 | SDS-resistant polymers: Monomer ([1]; pH 7.4, [Cu^2+] 5): 84.3 | SDS-resistant polymers: Pentamer ([1]; pH 7.4, [Cu^2+] 5): 0 | SDS-resistant polymers: Tetramer ([1]; pH 7.4, [Cu^2+] 5): 0 | SDS-resistant polymers: Trimer ([1]; pH 7.4, [Cu^2+] 5): 1.5 | SDS-resistant polymers: Dimer ([1]; pH 7.4, [Cu^2+] 10): 13.2 | SDS-resistant polymers: Monomer ([1]; pH 7.4, [Cu^2+] 10): 85.2 | SDS-resistant polymers: Pentamer ([1]; pH 7.4, [Cu^2+] 10): 0 | SDS-resistant polymers: Tetramer ([1]; pH 7.4, [Cu^2+] 10): 0 | SDS-resistant polymers: Trimer ([1]; pH 7.4, [Cu^2+] 10): 1.6 | SDS-resistant polymers: Dimer ([1]; pH 7.4, [Cu^2+] 30): 19.1 | SDS-resistant polymers: Monomer ([1]; pH 7.4, [Cu^2+] 30): 76.2 | SDS-resistant polymers: Pentamer ([1]; pH 7.4, [Cu^2+] 30): 0 | SDS-resistant polymers: Tetramer ([1]; pH 7.4, [Cu^2+] 30): 0 | SDS-resistant polymers: Trimer ([1]; pH 7.4, [Cu^2+] 30): 4.7 | reduction of available Fe^3+ [2]: 12% | reduction of available Cu^2+ [3]: 60%
